From patent publication US10752626B2, “Iso-citrate dehydrogenase (IDH) inhibitor” (SHANGHAI METON PHARMACEUTICAL CO., LTD, priority 2016, dated 2020)

Experiment: in vitro
Settings: microsomes; for % remaining #1 / % remaining #2 / Ln (% remaining) #1 / Ln (% remaining) #2 / Mean Ln(% remaining): 1 μM, pH 7.4; for microsomal CLint at 1 μM: pH 7.4, CLint; for half-life at 1 μM: pH 7.4, T1/2
Procedure: The liver microsomes of mouse, rat, dog, monkey and human were purchased from Corning Inc., and were stored at −60° C. prior to use. The acetonitrile and NADPH were purchased from Honeywell International Inc. (New Jersey, U.S.) and Roche Inc. (Basel, Swiss).
Reactions were initiated by adding NADPH to a final concentration of 1 mM. The final volume of each reaction mixture was 0.2 ml, and all reactions were performed in duplicate. At each set time point (0, 5, 15, 30 and 60 min), a small aliquot (e.g., 20 μl) was transferred from the reaction system into ice-cold internal standard (IS) containing acetonitrile to quench the reaction and to precipitate the protein. After vortex and centrifuge at 3700 rpm for 10 min, the supernatant was injected into LC-MS/MS for analysis.
In vitro microsomal clearance was estimated based on determination of elimination half-life (T1/2) of compounds disappearance from their initial concentrations. Peak area ratios of each compound (test or control) to IS was calculated. Ln (% Control) versus Incubation Time (min) curve was plotted, and the slope of a linear fitting line was calculated. Drug elimination rate constant k (min^−1), T1/2 (min), and in vitro intrinsic clearance CLint (mL·min^−1·mg^−1 proteins) was calculated according to the following equations: k=−slope T1/2=0.693/k CLint=k/Cprotein where Cprotein (mg·mL^−1) is the microsomal protein concentration in the incubation system. Test 3: Metabolic Stability Assay in Mouse Plasma
In this study, the metabolic stability of the compounds was assessed in mouse, rat, dog, monkey and human liver microsome according to the method disclosed in Test 2 of the Biological evaluation section.

CCN1Cc2c(ccnc2N[C@@H](C)c2ccc(Oc3ccc(C)cc3)cc2)C1=O [Compound 16, (S)-2-ethyl-4-(1-(4-(p-tolyloxy)phenyl)ethylamino)-2,3-dihydro-1H-pyrrolo [3,4-c]pyridin-1-one]
% remaining #1 (dog, 0 h): 100%
% remaining #2 (dog, 0 h): 100%
Ln (% remaining) #1 (dog, 0 h): 4.61
Ln (% remaining) #2 (dog, 0 h): 4.61
Mean Ln(% remaining) (dog, 0 h): 4.61
% remaining #1 (dog, 5 min): 105%
% remaining #2 (dog, 5 min): 106%
Ln (% remaining) #1 (dog, 5 min): 4.65
Ln (% remaining) #2 (dog, 5 min): 4.66
Mean Ln(% remaining) (dog, 5 min): 4.66
% remaining #1 (dog, 0.25 h): 94.6%
% remaining #2 (dog, 0.25 h): 85.4%
Ln (% remaining) #1 (dog, 0.25 h): 4.55
Ln (% remaining) #2 (dog, 0.25 h): 4.45
Mean Ln(% remaining) (dog, 0.25 h): 4.50
% remaining #1 (dog, 0.5 h): 76.5%
% remaining #2 (dog, 0.5 h): 76.0%
Ln (% remaining) #1 (dog, 0.5 h): 4.34
Ln (% remaining) #2 (dog, 0.5 h): 4.33
Mean Ln(% remaining) (dog, 0.5 h): 4.33
% remaining #1 (dog, 1 h): 52.8%
% remaining #2 (dog, 1 h): 48.8%
Ln (% remaining) #1 (dog, 1 h): 3.97
Ln (% remaining) #2 (dog, 1 h): 3.89
Mean Ln(% remaining) (dog, 1 h): 3.93
microsomal CLint at 1 μM (dog): 23 µL/min/mg
half-life at 1 μM (dog): 60.3 min
stability in human liver microsome (human): medium stability
% remaining #1 (human, 0 h): 100%
% remaining #2 (human, 0 h): 100%
Ln (% remaining) #1 (human, 0 h): 4.61
Ln (% remaining) #2 (human, 0 h): 4.61
Mean Ln(% remaining) (human, 0 h): 4.61
% remaining #1 (human, 5 min): 87.1%
% remaining #2 (human, 5 min): 90.5%
Ln (% remaining) #1 (human, 5 min): 4.47
Ln (% remaining) #2 (human, 5 min): 4.51
Mean Ln(% remaining) (human, 5 min): 4.49
% remaining #1 (human, 0.25 h): 65.7%
% remaining #2 (human, 0.25 h): 69.0%
Ln (% remaining) #1 (human, 0.25 h): 4.18
Ln (% remaining) #2 (human, 0.25 h): 4.23
Mean Ln(% remaining) (human, 0.25 h): 4.21
% remaining #1 (human, 0.5 h): 51.7%
% remaining #2 (human, 0.5 h): 50.5%
Ln (% remaining) #1 (human, 0.5 h): 3.95
Ln (% remaining) #2 (human, 0.5 h): 3.92
Mean Ln(% remaining) (human, 0.5 h): 3.93
% remaining #1 (human, 1 h): 26.2%
% remaining #2 (human, 1 h): 25.4%
Ln (% remaining) #1 (human, 1 h): 3.27
Ln (% remaining) #2 (human, 1 h): 3.23
Mean Ln(% remaining) (human, 1 h): 3.25
microsomal CLint at 1 μM (human): 43.6 µL/min/mg
half-life at 1 μM (human): 31.8 min
% remaining #1 (monkey, 0 h): 100%
% remaining #2 (monkey, 0 h): 100%
Ln (% remaining) #1 (monkey, 0 h): 4.61
Ln (% remaining) #2 (monkey, 0 h): 4.61
Mean Ln(% remaining) (monkey, 0 h): 4.61
% remaining #1 (monkey, 5 min): 66.1%
% remaining #2 (monkey, 5 min): 72.7%
Ln (% remaining) #1 (monkey, 5 min): 4.19
Ln (% remaining) #2 (monkey, 5 min): 4.29
Mean Ln(% remaining) (monkey, 5 min): 4.24
% remaining #1 (monkey, 0.25 h): 32.5%
% remaining #2 (monkey, 0.25 h): 35.4%
Ln (% remaining) #1 (monkey, 0.25 h): 3.48
Ln (% remaining) #2 (monkey, 0.25 h): 3.57
Mean Ln(% remaining) (monkey, 0.25 h): 3.52
% remaining #1 (monkey, 0.5 h): 12.5%
% remaining #2 (monkey, 0.5 h): 12.2%
Ln (% remaining) #1 (monkey, 0.5 h): 2.53
Ln (% remaining) #2 (monkey, 0.5 h): 2.51
Mean Ln(% remaining) (monkey, 0.5 h): 2.52
% remaining #1 (monkey, 1 h): 2.13%
% remaining #2 (monkey, 1 h): 2.06%
Ln (% remaining) #1 (monkey, 1 h): 0.757
Ln (% remaining) #2 (monkey, 1 h): 0.725
Mean Ln(% remaining) (monkey, 1 h): 0.741
microsomal CLint at 1 μM (monkey): 127 µL/min/mg
half-life at 1 μM (monkey): 10.9 min
% remaining #1 (mouse, 0 h): 100%
% remaining #2 (mouse, 0 h): 100%
Ln (% remaining) #1 (mouse, 0 h): 4.61
Ln (% remaining) #2 (mouse, 0 h): 4.61
Mean Ln(% remaining) (mouse, 0 h): 4.61
% remaining #1 (mouse, 5 min): 88.1%
% remaining #2 (mouse, 5 min): 94.2%
Ln (% remaining) #1 (mouse, 5 min): 4.48
Ln (% remaining) #2 (mouse, 5 min): 4.55
Mean Ln(% remaining) (mouse, 5 min): 4.51
% remaining #1 (mouse, 0.25 h): 72.7%
% remaining #2 (mouse, 0.25 h): 80.8%
Ln (% remaining) #1 (mouse, 0.25 h): 4.29
Ln (% remaining) #2 (mouse, 0.25 h): 4.39
Mean Ln(% remaining) (mouse, 0.25 h): 4.34
% remaining #1 (mouse, 0.5 h): 31.0%
% remaining #2 (mouse, 0.5 h): 43.8%
Ln (% remaining) #1 (mouse, 0.5 h): 3.43
Ln (% remaining) #2 (mouse, 0.5 h): 3.78
Mean Ln(% remaining) (mouse, 0.5 h): 3.61
% remaining #1 (mouse, 1 h): 10.6%
% remaining #2 (mouse, 1 h): 12.0%
Ln (% remaining) #1 (mouse, 1 h): 2.36
Ln (% remaining) #2 (mouse, 1 h): 2.48
Mean Ln(% remaining) (mouse, 1 h): 2.42
microsomal CLint at 1 μM (mouse): 77.4 µL/min/mg
half-life at 1 μM (mouse): 17.9 min
% remaining #1 (rat, 0 h): 100%
% remaining #2 (rat, 0 h): 100%
Ln (% remaining) #1 (rat, 0 h): 4.61
Ln (% remaining) #2 (rat, 0 h): 4.61
Mean Ln(% remaining) (rat, 0 h): 4.61
% remaining #1 (rat, 5 min): 90.0%
% remaining #2 (rat, 5 min): 111%
Ln (% remaining) #1 (rat, 5 min): 4.50
Ln (% remaining) #2 (rat, 5 min): 4.71
Mean Ln(% remaining) (rat, 5 min): 4.61
% remaining #1 (rat, 0.25 h): 59.4%
% remaining #2 (rat, 0.25 h): 92.3%
Ln (% remaining) #1 (rat, 0.25 h): 4.09
Ln (% remaining) #2 (rat, 0.25 h): 4.53
Mean Ln(% remaining) (rat, 0.25 h): 4.31
% remaining #1 (rat, 0.5 h): 35.8%
% remaining #2 (rat, 0.5 h): 62.9%
Ln (% remaining) #1 (rat, 0.5 h): 3.58
Ln (% remaining) #2 (rat, 0.5 h): 4.14
Mean Ln(% remaining) (rat, 0.5 h): 3.86
% remaining #1 (rat, 1 h): 14.0%
% remaining #2 (rat, 1 h): 24.1%
Ln (% remaining) #1 (rat, 1 h): 2.64
Ln (% remaining) #2 (rat, 1 h): 3.18
Mean Ln(% remaining) (rat, 1 h): 2.91
microsomal CLint at 1 μM (rat): 66.5 µL/min/mg
half-life at 1 μM (rat): 20.8 min
